US20110105623A1 (Biogenic Innovations, LLC, priority 2009, published 2011)

What was measured:
Bacillus coagulans = experiment: Probiotic growth in media supplemented with MSM; assay type: cell-based
Text: Plates were then counted. […] Data are presented in Cfu/mL.

Staphylococcus aureus = experiment: USP AET, MSM in TSB; assay type: cell-based; parameters: key to AET microorganism count: Colonies too numerous to count (TNTC); settings: for Log Reduction from Initial Microorganism Inoculum: 1:10 dilution of MSM, 14, 28 Days; for AET microorganism count: 48 hrs
Text: (§1) Compounds or formulated products having antimicrobial activity may be evaluated with the United States Pharmacopeia (USP) Antimicrobial Effectiveness Test (AET). The AET involves the addition of specified microorganisms (Candida albicans, Aspergillus niger, Escherichia coli, Pseudomonas aeruginosa and Staphylococcus aureus) directly to a test product at relatively high concentrations to simulate contamination. The product is held for one month, with weekly analysis of microorganism levels. Depending on the route of administration of a product, satisfaction of the AET generally requires a 1 to 3 log reduction in bacteria from initial levels, which should occur in one to two weeks, with no further increase in bacteria after two weeks. For yeast and mold, no increase from the initial inoculums level is permitted.
(§2) Inoculations were made using Candida albicans, Aspergillus niger, Escherichia coli, Pseudomonas aeruginosa and Staphylococcus aureus. Tryptic soy broth (TSB) was used as the culturing media. […] The inoculated media was held for one month, during which time the added microorganisms were enumerated weekly to determine if they were growing, dying off, or remaining near the initial inoculation level. Data points were measured in triplicate at 48 hours, 3, 5, 14, 20, 28, and 30 days. The acceptance criteria for antimicrobial effectiveness are described in detail in the USP, herein incorporated by reference.

Candida albicans = experiment: USP AET, MSM in TSB; assay type: cell-based; parameters: key to AET microorganism count: Colonies too numerous to count (TNTC); settings: for Log Reduction from Initial Microorganism Inoculum: 1:10 dilution of MSM, 14, 28 Days; for AET microorganism count: 48 hrs
Text: as §1, §2

[1] = tested on: MDCK cells (ATCC # CCL-34); experiment: Cytotoxicity of MSM; assay type: cell-based, Canis; settings: for Test Product Cytotoxicity (CPE): MDCK
Text: Determination of test product cytotoxicity.
B. Toxicity Control for Pre-Treatment Test.

Methylsulfonylmethane [MSM]
Growth of Bacillus coagulans (Bacillus coagulans; 0.125% MSM, 64 h): 12.13 log10 CFU/mL
Growth of Bacillus coagulans (Bacillus coagulans; 0.125% MSM, 72 h): 10.14 log10 CFU/mL
Growth of Bacillus coagulans (Bacillus coagulans; 0.2% MSM, 0 h): 1.67 log10 CFU/mL
Growth of Bacillus coagulans (Bacillus coagulans; 0.2% MSM, 8 h): 4.94 log10 CFU/mL
Growth of Bacillus coagulans (Bacillus coagulans; 0.2% MSM, 16 h): 7.19 log10 CFU/mL
Growth of Bacillus coagulans (Bacillus coagulans; 0.2% MSM, 24 h): 10.34 log10 CFU/mL
Growth of Bacillus coagulans (Bacillus coagulans; 0.2% MSM, 32 h): 11.25 log10 CFU/mL
Growth of Bacillus coagulans (Bacillus coagulans; 0.2% MSM, 40 h): 11.34 log10 CFU/mL
Growth of Bacillus coagulans (Bacillus coagulans; 0.2% MSM, 48 h): 9.94 log10 CFU/mL
Growth of Bacillus coagulans (Bacillus coagulans; 0.2% MSM, 56 h): 11.45 log10 CFU/mL
Growth of Bacillus coagulans (Bacillus coagulans; 0.2% MSM, 64 h): 11.37 log10 CFU/mL
Growth of Bacillus coagulans (Bacillus coagulans; 0.2% MSM, 72 h): 10.94 log10 CFU/mL
Growth of Bacillus coagulans (Bacillus coagulans; 0.50% MSM, 0 h): 1.48 log10 CFU/mL
Growth of Bacillus coagulans (Bacillus coagulans; 0.50% MSM, 8 h): 4.42 log10 CFU/mL
Growth of Bacillus coagulans (Bacillus coagulans; 0.50% MSM, 16 h): 6.94 log10 CFU/mL
Growth of Bacillus coagulans (Bacillus coagulans; 0.50% MSM, 24 h): 10.29 log10 CFU/mL
Growth of Bacillus coagulans (Bacillus coagulans; 0.50% MSM, 32 h): 11.05 log10 CFU/mL
Growth of Bacillus coagulans (Bacillus coagulans; 0.50% MSM, 40 h): 10.25 log10 CFU/mL
Growth of Bacillus coagulans (Bacillus coagulans; 0.50% MSM, 48 h): 10.40 log10 CFU/mL
Growth of Bacillus coagulans (Bacillus coagulans; 0.50% MSM, 56 h): 10.76 log10 CFU/mL
Growth of Bacillus coagulans (Bacillus coagulans; 0.50% MSM, 64 h): 10.45 log10 CFU/mL
Growth of Bacillus coagulans (Bacillus coagulans; 0.50% MSM, 72 h): 10.86 log10 CFU/mL
Growth of Bacillus coagulans (Bacillus coagulans; 1% MSM, 0 h): 1.30 log10 CFU/mL
Growth of Bacillus coagulans (Bacillus coagulans; 1% MSM, 8 h): 4.98 log10 CFU/mL
Growth of Bacillus coagulans (Bacillus coagulans; 1% MSM, 16 h): 7.29 log10 CFU/mL
Growth of Bacillus coagulans (Bacillus coagulans; 1% MSM, 24 h): 10.30 log10 CFU/mL
Growth of Bacillus coagulans (Bacillus coagulans; 1% MSM, 32 h): 11.42 log10 CFU/mL
Growth of Bacillus coagulans (Bacillus coagulans; 1% MSM, 40 h): 11.02 log10 CFU/mL
Growth of Bacillus coagulans (Bacillus coagulans; 1% MSM, 48 h): 10.38 log10 CFU/mL
Growth of Bacillus coagulans (Bacillus coagulans; 1% MSM, 56 h): 10.86 log10 CFU/mL
Growth of Bacillus coagulans (Bacillus coagulans; 1% MSM, 64 h): 10.40 log10 CFU/mL
Growth of Bacillus coagulans (Bacillus coagulans; 1% MSM, 72 h): 10.70 log10 CFU/mL
Growth of Bacillus coagulans (Bacillus coagulans; 5% MSM, 0 h): 1.56 log10 CFU/mL
Growth of Bacillus coagulans (Bacillus coagulans; 5% MSM, 8 h): 4.61 log10 CFU/mL
Growth of Bacillus coagulans (Bacillus coagulans; 5% MSM, 16 h): 7.56 log10 CFU/mL
Growth of Bacillus coagulans (Bacillus coagulans; 5% MSM, 24 h): 10.48 log10 CFU/mL
Growth of Bacillus coagulans (Bacillus coagulans; 5% MSM, 32 h): 11.55 log10 CFU/mL
Growth of Bacillus coagulans (Bacillus coagulans; 5% MSM, 40 h): 10.85 log10 CFU/mL
Growth of Bacillus coagulans (Bacillus coagulans; 5% MSM, 48 h): 10.22 log10 CFU/mL
Growth of Bacillus coagulans (Bacillus coagulans; 5% MSM, 56 h): 11.1 log10 CFU/mL
Growth of Bacillus coagulans (Bacillus coagulans; 5% MSM, 64 h): 10.75 log10 CFU/mL
Growth of Bacillus coagulans (Bacillus coagulans; 5% MSM, 72 h): 11.81 log10 CFU/mL
Growth of Bacillus coagulans (Bacillus coagulans; […] MSM, 0 h): 1.43 log10 CFU/mL
Growth of Bacillus coagulans (Bacillus coagulans; […] MSM, 8 h): 5.13 log10 CFU/mL
Growth of Bacillus coagulans (Bacillus coagulans; […] MSM, 16 h): 7.05 log10 CFU/mL
Growth of Bacillus coagulans (Bacillus coagulans; […] MSM, 24 h): 10.22 log10 CFU/mL
Growth of Bacillus coagulans (Bacillus coagulans; […] MSM, 32 h): 11.70 log10 CFU/mL
Growth of Bacillus coagulans (Bacillus coagulans; […] MSM, 40 h): 10.55 log10 CFU/mL
Growth of Bacillus coagulans (Bacillus coagulans; […] MSM, 48 h): 10.88 log10 CFU/mL
Growth of Bacillus coagulans (Bacillus coagulans; […] MSM, 56 h): 10.86 log10 CFU/mL
Growth of Bacillus coagulans (Bacillus coagulans; […] MSM, 64 h): 10.97 log10 CFU/mL
Growth of Bacillus coagulans (Bacillus coagulans; […] MSM, 72 h): 11.05 log10 CFU/mL
Log Reduction from Initial Microorganism Inoculum (Staphylococcus aureus; 14 days after inoculation): 4.5 log
Log Reduction from Initial Microorganism Inoculum (Staphylococcus aureus; 28 days after inoculation): 4.7 log
AET microorganism count (Staphylococcus aureus; 1:100 dilution of MSM): TNTC
AET microorganism count (Staphylococcus aureus; 1:1000 dilution of MSM): TNTC
Log Reduction from Initial Microorganism Inoculum (Candida albicans; 14 days after inoculation): 4.2 log
Log Reduction from Initial Microorganism Inoculum (Candida albicans; 28 days after inoculation): 4.4 log
AET microorganism count (Candida albicans; 1:100 dilution of MSM): TNTC
AET microorganism count (Candida albicans; 1:1000 dilution of MSM): TNTC
Test Product Cytotoxicity (CPE) ([1]; 0.5%): 00
Test Product Cytotoxicity (CPE) ([1]; 1%): 00
Test Product Cytotoxicity (CPE) ([1]; 2%): 00
Test Product Cytotoxicity (CPE) ([1]; 3%): 00
Test Product Cytotoxicity (CPE) ([1]; 4%): 00
Test Product Cytotoxicity (CPE) ([1]; 5%): 00
cytotoxic effect ([1]; MSM 6% through 0.5%): no visible cytotoxic effect
TC50 ([1]; kills 50% of uninfected cells): approximately 7%
